# Where two headings read alike, the source gives them in different places.
# Legend:
# T cells = assay: T cell viability after pre-incubation with CHOP components; assay type: cell-based
# [1] = tested on: relapsed/refractory (R/R) B-NHL; assay: epcoritamab monotherapy clinical trial (NCT03625037); assay type: in vivo
# Excerpt: Epcoritamab as monotherapy is currently in a clinical trial for the treatment of relapsed/refractory (R/R) B-NHL (ClinicalTrials.gov Identifier: NCT03625037).
# [2] = tested on: primary DLBCL and follicular lymphoma patient biopsies; details: cited from earlier work
# [3] = tested on: CD20-expressing Raji-luc tumor cells; details: even in the presence of an excess of IgG1-RTX-FEAR; Engelberts et al. 2020; cited from earlier work
# [4] = tested on: previously untreated, high-risk (IPI or R-IPI≥3) DLBCL; assay: Phase 1b open-label trial of epcoritamab in combination with R-CHOP; assay type: in vivo, human; details: as of Sep. 8, 2021; CRS under epcoritamab + R-CHOP
# Description: Epcoritamab is initially be administered in combination with R-CHOP in a 3-subject cohort. DLTs are evaluated during the first 28 days.
# Cyclophosphamide (750 mg/m^2) is administered intravenously on day 1 once every three weeks (Q3 W) of cycles 1-6 or 1-8. Doxorubicin (50 mg/m^2) is administered intravenously on day 1 once every three weeks (Q3 W) of cycles 1-6 or 1-8. Vincristine (1.4 mg/m^2, with a recommended cap of 2 mg) is administered intravenously on day 1 once every three weeks (Q3 W) of cycles 1-6 or 1-8. Prednisone (100 mg/day) is administered intravenously or orally on five consecutive days (days 1-5) every three weeks (Q3 W) of cycles 1-6 or 1-8.
# MRD negativity rate, is defined as the proportion of subjects with at least 1 undetectable MRD result according to the specific threshold, prior to initiation of subsequent therapy.
# CD20 = target: T1, CD20 (Homo sapiens, UniProt P11836); details: bind to a different epitope; cited from earlier work
# T1 sequence (P11836 1-297): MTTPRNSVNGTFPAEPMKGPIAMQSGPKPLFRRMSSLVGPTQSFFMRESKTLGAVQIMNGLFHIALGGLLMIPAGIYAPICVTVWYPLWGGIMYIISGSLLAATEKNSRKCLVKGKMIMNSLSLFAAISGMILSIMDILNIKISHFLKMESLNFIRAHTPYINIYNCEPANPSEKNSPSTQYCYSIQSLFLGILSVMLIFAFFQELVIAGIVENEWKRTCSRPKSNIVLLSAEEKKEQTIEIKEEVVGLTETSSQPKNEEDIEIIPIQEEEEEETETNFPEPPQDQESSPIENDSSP
# [5] = T cells pre-incubated 16 hours, data not shown
compound,measurement,setting,value
"O=P1(N(CCCl)CCCl)NCCCO1 (centres unmarked) [cyclophosphamide, 2H-1,3,2-Oxazaphosphorin-2-amine, N,N-bis(2-chloroethyl)tetrahydro-, 2-oxide]",T cell viability after pretreatment,T cells,did not impact T cell viability
COc1cccc2c1C(=O)c1c(O)c3c(c(O)c1C2=O)C[C@@](O)(C(=O)CO)C[C@@H]3O[C@H]1C[C@H](N)[C@H](O)[C@H](C)O1 [doxorubicin],T cell viability after pretreatment,T cells; [5],led to a reduction in T cell viability
CC[C@]1(O)C[C@H]2CN(CCc3c([nH]c4ccccc34)[C@@](C(=O)OC)(c3cc4c(cc3OC)N(C=O)[C@H]3[C@@](O)(C(=O)OC)[C@H](OC(C)=O)[C@]5(CC)C=CCN6CC[C@]43[C@@H]65)C2)C1 [vincristine],T cell viability after pretreatment,T cells; [5],did not impact T cell viability
"C[C@]12C=CC(=O)C=C1CC[C@@H]1[C@@H]2C(=O)C[C@@]2(C)[C@H]1CC[C@]2(O)C(=O)CO [prednisone, 17,21-dihydroxypregna-1,4-diene-3,11,20-trione]",T cell viability after pretreatment,T cells; [5],did not impact T cell viability
epcoritamab: IgG1 bispecific CD3xCD20 antibody; heavy and light chain pairs SEQ ID NOs: 24/25 (CD3ε arm) and 26/27 (CD20 arm); CAS 2134641-34-0,tolerated dose,"[1]; human, in vivo",at least 48 mg
same,dose-limiting toxicities,"[1]; monotherapy, R/R B-NHL patients, preliminary data",no dose-limiting toxicities reported
same,T-cell-mediated cytotoxicity,"[2]; biopsies taken a certain amount of time after anti-CD20 antibody, Van der Horst et al. 2019",induced T-cell-mediated cytotoxicity
same,tumor cell kill,[2]; biopsy taken 2 weeks after administering anti-CD20 antibody,up to 40%
same,tumor growth,[3],effectively reduce tumor growth
"tocilizumab: a humanized antibody against IL-6 receptor, commercially available as, e.g., ACTEMRA",outcome of the Grade 3 CRS episode after treatment,[4],recovered
IgG1-CD20: anti-CD20 antibody of which the CD20 arm of epcoritamab is derived,competition for CD20 binding,CD20,compete for CD20 binding

# Reference: patent US20240034812A1, “BISPECIFIC ANTIBODY AGAINST CD3 AND CD20 IN COMBINATION THERAPY FOR TREATING DIFFUSE LARGE B-CELL LYMPHOMA” (GENMAB A/S, priority 2020, published 2024)
